Source: ChEMBL document CHEMBL3792365, “Dioxol and dihydrodioxin analogs of 2- and 3-phenylacetonitriles as potent anti-cancer agents with nanomolar activity against a variety of human cancer cells” (2016)

Key:
Assay type in all cases: functional
[1] = Growth inhibition of human SF539 cells at 10 uM after 48 hrs by sulforhodamine B assay; conditions: SF-539, 48 h, values are per cent of control
[2] = tested on: NCI-H460; assay: Growth inhibition of human NCI-H460 cells at 10 uM after 48 hrs by sulforhodamine B assay; conditions: NCI-H460, 48 h, values are per cent of control
[3] = Growth inhibition of human SF268 cells at 10 uM after 48 hrs by sulforhodamine B assay; conditions: SF-268, 48 h, values are per cent of control
[4] = tested on: T47D; assay: Growth inhibition of human T47D cells at 10 uM after 48 hrs by sulforhodamine B assay; conditions: values are per cent of control
[5] = tested on: SK-MEL-2; assay: Growth inhibition of human SK-MEL-2 cells at 10 uM after 48 hrs by sulforhodamine B assay; conditions: SK-MEL-2, 48 h, values are per cent of control
[6] = tested on: 786-0; assay: Growth inhibition of human 786-0 cells at 10 uM after 48 hrs by sulforhodamine B assay; conditions: 786-0, 48 h, values are per cent of control
[7] = tested on: SN12C; assay: Growth inhibition of human SN12C cells at 10 uM after 48 hrs by sulforhodamine B assay; conditions: values are per cent of control
[8] = tested on: MDA-MB-231; assay: Growth inhibition of human MDA-MB-231 cells at 10 uM after 48 hrs by sulforhodamine B assay; conditions: MDA-MB-231, 48 h, values are per cent of control
[9] = tested on: HT-29; assay: Growth inhibition of human HT-29 cells at 10 uM after 48 hrs by sulforhodamine B assay; conditions: HT-29, 48 h, values are per cent of control
[10] = Growth inhibition of human SF295 cells at 10 uM after 48 hrs by sulforhodamine B assay; conditions: SF-295, 48 h, values are per cent of control
[11] = Growth inhibition of human Caki1 cells at 10 uM after 48 hrs by sulforhodamine B assay; conditions: CAKI-1, 48 h, values are per cent of control
[12] = tested on: SK-MEL-28; assay: Growth inhibition of human SK-MEL-28 cells at 10 uM after 48 hrs by sulforhodamine B assay; conditions: SK-MEL-28, 48 h, values are per cent of control
[13] = tested on: NCI-H23; assay: Growth inhibition of human NCI-H23 cells at 10 uM after 48 hrs by sulforhodamine B assay; conditions: NCI-H23, 48 h, values are per cent of control
[14] = tested on: ACHN; assay: Growth inhibition of human ACHN cells at 10 uM after 48 hrs by sulforhodamine B assay; conditions: values are per cent of control
[15] = Growth inhibition of human HCT15 cells at 10 uM after 48 hrs by sulforhodamine B assay; conditions: HCT-15, 48 h, values are per cent of control
[16] = Growth inhibition of human NCI-ADR-RES cells at 10 uM after 48 hrs by sulforhodamine B assay; conditions: values are per cent of control
[17] = tested on: A498; assay: Growth inhibition of human A498 cells at 10 uM after 48 hrs by sulforhodamine B assay; conditions: A498, 48 h, values are per cent of control
[18] = Growth inhibition of human OVCAR5 cells at 10 uM after 48 hrs by sulforhodamine B assay; conditions: OVCAR-5, 48 h, values are per cent of control
[19] = Growth inhibition of human DU145 cells at 10 uM after 48 hrs by sulforhodamine B assay; conditions: DU-145, 48 h, values are per cent of control
[20] = Growth inhibition of human LOXIMVI cells at 10 uM after 48 hrs by sulforhodamine B assay; conditions: LOX IMVI, values are per cent of control
[21] = tested on: K562; assay: Growth inhibition of human K562 cells at 10 uM after 48 hrs by sulforhodamine B assay; conditions: K562, 48 h, values are per cent of control
[22] = Growth inhibition of human SW620 cells at 10 uM after 48 hrs by sulforhodamine B assay; conditions: SW-620, 48 h, values are per cent of control
[23] = Growth inhibition of human HCT116 cells at 10 uM after 48 hrs by sulforhodamine B assay; conditions: HCT-116, 48 h, values are per cent of control
[24] = Growth inhibition of human SKOV3 cells at 10 uM after 48 hrs by sulforhodamine B assay; conditions: SK-OV-3, 48 h, values are per cent of control
[25] = tested on: NCI-H322M; assay: Growth inhibition of human NCI-H322M cells at 10 uM after 48 hrs by sulforhodamine B assay; conditions: values are per cent of control
[26] = Growth inhibition of human SNB75 cells at 10 uM after 48 hrs by sulforhodamine B assay; conditions: SNB-75, 48 h, values are per cent of control
[27] = Growth inhibition of human RXF393 cells at 10 uM after 48 hrs by sulforhodamine B assay; conditions: RXF 393, 48 h, values are per cent of control
[28] = tested on: A549; assay: Growth inhibition of human A549/ATCC cells at 10 uM after 48 hrs by sulforhodamine B assay; conditions: A549, 48 h, values are per cent of control
[29] = Growth inhibition of human IGROV1 cells at 10 uM after 48 hrs by sulforhodamine B assay; conditions: IGROV-1, 48 h, values are per cent of control
[30] = tested on: M14; assay: Growth inhibition of human M14 cells at 10 uM after 48 hrs by sulforhodamine B assay; conditions: M14, 48 h, values are per cent of control
[31] = Growth inhibition of human TK10 cells at 10 uM after 48 hrs by sulforhodamine B assay; conditions: TK-10, 48 h, values are per cent of control
[32] = Growth inhibition of human OVCAR8 cells at 10 uM after 48 hrs by sulforhodamine B assay; conditions: OVCAR-8, 48 h, values are per cent of control
[33] = Growth inhibition of human UACC62 cells at 10 uM after 48 hrs by sulforhodamine B assay; conditions: UACC-62, 48 h, values are per cent of control
[34] = Growth inhibition of human HCC2998 cells at 10 uM after 48 hrs by sulforhodamine B assay; conditions: HCC 2998, 48 h, values are per cent of control
[35] = Growth inhibition of human COLO205 cells at 10 uM after 48 hrs by sulforhodamine B assay; conditions: COLO 205, 48 h, values are per cent of control
[36] = tested on: NCI-H522; assay: Growth inhibition of human NCI-H522 cells at 10 uM after 48 hrs by sulforhodamine B assay; conditions: NCI-H522, 48 h, values are per cent of control
[37] = Growth inhibition of human Hs 578T cells at 10 uM after 48 hrs by sulforhodamine B assay; conditions: values are per cent of control
[38] = Growth inhibition of human UO31 cells at 10 uM after 48 hrs by sulforhodamine B assay; conditions: UO-31, 48 h, values are per cent of control
[39] = tested on: SK-MEL-5; assay: Growth inhibition of human SK-MEL-5 cells at 10 uM after 48 hrs by sulforhodamine B assay; conditions: SK-MEL-5, 48 h, values are per cent of control
[40] = Growth inhibition of human OVCAR4 cells at 10 uM after 48 hrs by sulforhodamine B assay; conditions: OVCAR-4, 48 h, values are per cent of control

SMILES | growth, % of control at 10 µM [1] | growth, % of control at 10 µM [2] | growth, % of control at 10 µM [3] | growth, % of control at 10 µM [4] | growth, % of control at 10 µM [5] | growth, % of control at 10 µM [6] | growth, % of control at 10 µM [7] | growth, % of control at 10 µM [8] | growth, % of control at 10 µM [9] | growth, % of control at 10 µM [10] | growth, % of control at 10 µM [11] | growth, % of control at 10 µM [12] | growth, % of control at 10 µM [13] | growth, % of control at 10 µM [14] | growth, % of control at 10 µM [15] | growth, % of control at 10 µM [16] | growth, % of control at 10 µM [17] | growth, % of control at 10 µM [18] | growth, % of control at 10 µM [19] | growth, % of control at 10 µM [20] | other results
N#C/C(=C\c1cc(F)cc(F)c1)c1ccc2c(c1)OCO2 | 97.8% | 103% | 101% | 102% | 119% | 94.6% | 106% | 102% | 109% | 98.5% | 94.2% | 115% | 103% | 109% | 99.4% | 106% | 111% | 103% | 109% | 105% | growth, % of control at 10 µM [21]: 106%; growth, % of control at 10 µM [22]: 105%; growth, % of control at 10 µM [23]: 97.1%; growth, % of control at 10 µM [24]: 102%; growth, % of control at 10 µM [25]: 121%; growth, % of control at 10 µM [26]: 112%; growth, % of control at 10 µM [27]: 98.5%; growth, % of control at 10 µM [28]: 100%; growth, % of control at 10 µM [29]: 121%; growth, % of control at 10 µM [30]: 99%; growth, % of control at 10 µM [31]: 119%; growth, % of control at 10 µM [32]: 96.7%; growth, % of control at 10 µM [33]: 106%; growth, % of control at 10 µM [34]: 94.6%; growth, % of control at 10 µM [35]: 105%; growth, % of control at 10 µM [36]: 132%; growth, % of control at 10 µM [37]: 122%; growth, % of control at 10 µM [38]: 104%; growth, % of control at 10 µM [39]: 105%; growth, % of control at 10 µM [40]: 107%
COc1ccc(/C(C#N)=C/c2ccc3c(c2)OCCO3)cc1OC | 5.6% | 12.4% | 53.2% | 31% | 19.4% | 39.3% | 56.7% | 63% | 6.6% | -14% | 17.6% | 61.7% | 46.8% | 51.3% | 31.6% | 24.5% | -4.1% | 73.5% | 20.7% | 44.9% | growth, % of control at 10 µM [21]: 11.6%; growth, % of control at 10 µM [22]: 15.5%; growth, % of control at 10 µM [23]: 22.3%; growth, % of control at 10 µM [24]: 20%; growth, % of control at 10 µM [25]: 34.5%; growth, % of control at 10 µM [26]: 2.2%; growth, % of control at 10 µM [27]: 14.9%; growth, % of control at 10 µM [28]: 40%; growth, % of control at 10 µM [29]: 49.5%; growth, % of control at 10 µM [30]: 19.7%; growth, % of control at 10 µM [31]: 45.7%; growth, % of control at 10 µM [32]: 30.1%; growth, % of control at 10 µM [33]: 43.7%; growth, % of control at 10 µM [34]: 60.1%; growth, % of control at 10 µM [35]: -1.3%; growth, % of control at 10 µM [36]: -30.1%; growth, % of control at 10 µM [37]: 16.3%; growth, % of control at 10 µM [38]: 41.8%; growth, % of control at 10 µM [39]: 16.8%; growth, % of control at 10 µM [40]: 69.3%
